Source: patent publication US8445501B2, “Substituted 7-carboxamido-pyrrolo[3,2-d]pyrimidines” (Takeda GmbH, priority 2008, dated 2013)

What follows are compounds tested against T1, human PDE5 (Homo sapiens, UniProt O76074) (assay: Inhibition of the type 5 phosphodiesterase (PDE5) activity, modified SPA test with platelet lysate). Details: PDE5 from human platelet lysate, 0.5 μM cGMP.
T1 construct: from tissue; host or cells: platelets from fresh blood of human donors (lysate, 10,000 g supernatant)
Format: biochemical
In short: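 SPA-based cGMP hydrolysis, [3H]cGMP tracer in 0.5 μM cGMP, by sonicated human platelet lysate; motapizone (1 μM) and a PDE2 inhibitor (10 nM) block other PDEs. Reaction 15 min at 37 °C after 5 min preincubation, quenched with beads containing IBMX. IC50 from concentration-effect curves.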

Row | IC50 | Structure (SMILES)
1 | 513 pM | O=C(NCC1CCN(C(=O)C2(O)CC2)CC1)c1c[nH]c2c(-c3c(OCC4CC4)ccc4c3OCO4)ncnc12 [Example 188, 4-(5-Cyclopropylmethoxy-benzo[1,3]dioxol-4-yl)-5H-pyrrolo[3,2-d]pyrimidine-7-carboxylic acid {1-[1-(1-hydroxy-cyclopropyl)-methanoyl]-piperidin-4-ylmethyl}-amide]
2 | 389 pM | O=C(NCC1CCCN(C(=O)CO)C1)c1c[nH]c2c(-c3c(OCC4CC4)ccc4c3OCO4)ncnc12 (stereo not shown) [Example 189, 4-(5-Cyclopropylmethoxy-benzo[1,3]dioxol-4-yl)-5H-pyrrolo[3,2-d]pyrimidine-7-carboxylic acid [1-(2-hydroxy-acetyl)piperidin-3-ylmethyl]-amide]
3 | 251 pM | C[C@H](O)C(=O)N1CCCC(CNC(=O)c2c[nH]c3c(-c4c(OCC5CC5)ccc5c4OCO5)ncnc23)C1 (stereo partly drawn) [Example 190, 4-(5-Cyclopropylmethoxy-benzo[1,3]dioxol-4-yl)-5H-pyrrolo[3,2-d]pyrimidine-7-carboxylic acid [1-((S)-2-hydroxy-propionyl)piperidin-3-ylmethyl]-amide]
4 | 1020 pM | O=C(NCC1CCN(C(=O)CO)C1)c1c[nH]c2c(-c3c(OCC4CC4)ccc4c3OCO4)ncnc12 (stereo not shown) [Example 191, 4-(5-Cyclopropylmethoxy-benzo[1,3]dioxol-4-yl)-5H-pyrrolo[3,2-d]pyrimidine-7-carboxylic acid [1-(2-hydroxy-acetyl)pyrrolidin-3-ylmethyl]-amide]
5 | 832 pM | C[C@H](O)C(=O)N1CCC(CNC(=O)c2c[nH]c3c(-c4c(OCC5CC5)ccc5c4OCO5)ncnc23)C1 (stereo partly drawn) [Example 192, 4-(5-Cyclopropylmethoxy-benzo[1,3]dioxol-4-yl)-5H-pyrrolo[3,2-d]pyrimidine-7-carboxylic acid [1-((S)-2-hydroxy-propionyl)pyrrolidin-3-ylmethyl]-amide]
6 | 1070 pM | O=C(NCC1CN(C(=O)CO)CCO1)c1c[nH]c2c(-c3c(OCC4CC4)ccc4c3OCO4)ncnc12 (stereo not shown) [Example 193, 4-(5-Cyclopropylmethoxy-benzo[1,3]dioxol-4-yl)-5H-pyrrolo[3,2-d]pyrimidine-7-carboxylic acid [4-(2-hydroxy-acetyl)morpholin-2-ylmethyl]-amide]
7 | 832 pM | C[C@H](O)C(=O)N1CCOC(CNC(=O)c2c[nH]c3c(-c4c(OCC5CC5)ccc5c4OCO5)ncnc23)C1 (stereo partly drawn) [Example 194, 4-(5-Cyclopropylmethoxy-benzo[1,3]dioxol-4-yl)-5H-pyrrolo[3,2-d]pyrimidine-7-carboxylic acid [4-((S)-2-hydroxy-propionyl)-morpholin-2-ylmethyl]-amide]
8 | 1320 pM | O=C(NC1CN(C(=O)CO)C1)c1c[nH]c2c(-c3c(OCC4CC4)ccc4c3OCO4)ncnc12 [Example 195, 4-(5-Cyclopropylmethoxy-benzo[1,3]dioxol-4-yl)-5H-pyrrolo[3,2-d]pyrimidine-7-carboxylic acid [1-(2-hydroxy-ethanoyl)-azetidin-3-yl]-amide]
9 | 759 pM | C[C@H](O)C(=O)N1CC(NC(=O)c2c[nH]c3c(-c4c(OCC5CC5)ccc5c4OCO5)ncnc23)C1 [Example 196, 4-(5-Cyclopropylmethoxy-benzo[1,3]dioxol-4-yl)-5H-pyrrolo[3,2-d]pyrimidine-7-carboxylic acid [1-((S)-2-hydroxy-propanoyl)azetidin-3-yl]-amide]
10 | 851 pM | C[C@H](O)C(=O)N1CCC[C@H](NC(=O)c2c[nH]c3c(-c4c(OCC5CC5)ccc5c4OCO5)ncnc23)C1 [Example 197, 4-(5-Cyclopropylmethoxy-benzo[1,3]dioxol-4-yl)-5H-pyrrolo[3,2-d]pyrimidine-7-carboxylic acid [(S)-1-((S)-2-hydroxy-propanoyl)piperidin-3-yl]-amide]
11 | 617 pM | C[C@H](O)C(=O)N1CCC[C@@H](NC(=O)c2c[nH]c3c(-c4c(OCC5CC5)ccc5c4OCO5)ncnc23)C1 [Example 198, 4-(5-Cyclopropylmethoxy-benzo[1,3]dioxol-4-yl)-5H-pyrrolo[3,2-d]pyrimidine-7-carboxylic acid [(R)-1-((S)-2-hydroxy-propanoyl)piperidin-3-yl]-amide]
12 | 589 pM | COc1ccc(-c2ncnc3c(C(=O)N[C@H]4CC[C@H](NC(=O)CO)CC4)c[nH]c23)c(OCC2CC2)c1 [Example 199, trans-4-(2-Cyclopropylmethoxy-4-methoxy-phenyl)-5H-pyrrolo[3,2-d]pyrimidine-7-carboxylic acid [4-(2-hydroxy-acetylamino)-cyclohexyl]-amide]
13 | 479 pM | COc1ccc(-c2ncnc3c(C(=O)N[C@H]4CC[C@H](NC(=O)[C@H](C)O)CC4)c[nH]c23)c(OCC2CC2)c1 [Example 200, trans-4-(2-Cyclopropylmethoxy-4-methoxy-phenyl)-5H-pyrrolo[3,2-d]pyrimidine-7-carboxylic acid [4-((S)-2-hydroxy-propionylamino)-cyclohexyl]-amide]
14 | 407 pM | COc1ccc(-c2ncnc3c(C(=O)N[C@H]4CC[C@H](NC(=O)C5(O)CC5)CC4)c[nH]c23)c(OCC2CC2)c1 [Example 201, trans-4-(2-Cyclopropylmethoxy-4-methoxy-phenyl)-5H-pyrrolo[3,2-d]pyrimidine-7-carboxylic acid {4-[(1-hydroxy-cyclopropanecarbonyl)-amino]-cyclohexyl}-amide]
15 | 741 pM | COc1ccc(-c2ncnc3c(C(=O)N[C@H]4CC[C@@H](NC(=O)CO)CC4)c[nH]c23)c(OCC2CC2)c1 [Example 202, cis-4-(2-Cyclopropylmethoxy-4-methoxy-phenyl)-5H-pyrrolo[3,2-d]pyrimidine-7-carboxylic acid [4-(2-hydroxy-acetylamino)-cyclohexyl]-amide]
16 | 389 pM | COc1ccc(-c2ncnc3c(C(=O)N[C@H]4CC[C@@H](NC(=O)[C@H](C)O)CC4)c[nH]c23)c(OCC2CC2)c1 [Example 203, cis-4-(2-Cyclopropylmethoxy-4-methoxy-phenyl)-5H-pyrrolo[3,2-d]pyrimidine-7-carboxylic acid [4-((S)-2-hydroxy-propionylamino)-cyclohexyl]-amide]
17 | 257 pM | COc1ccc(-c2ncnc3c(C(=O)N[C@H]4CC[C@@H](NC(=O)C5(O)CC5)CC4)c[nH]c23)c(OCC2CC2)c1 [Example 204, cis-4-(2-Cyclopropylmethoxy-4-methoxy-phenyl)-5H-pyrrolo[3,2-d]pyrimidine-7-carboxylic acid {-[(1-hydroxy-cyclopropanecarbonyl)-amino]-cyclohexyl}-amide]
18 | 832 pM | COc1ccc(-c2ncnc3c(C(=O)NC4CCN(C(=O)CO)CC4)c[nH]c23)c(OCC2CC2)c1 [Example 205, 4-(2-Cyclopropylmethoxy-4-methoxy-phenyl)-5H-pyrrolo[3,2-d]pyrimidine-7-carboxylic acid [1-(2-hydroxy-ethanoyl)-piperidin-4-yl]amide]
19 | 661 pM | COc1ccc(-c2ncnc3c(C(=O)NC4CCN(C(=O)[C@H](C)O)CC4)c[nH]c23)c(OCC2CC2)c1 [Example 206, 4-(2-Cyclopropylmethoxy-4-methoxy-phenyl)-5H-pyrrolo[3,2-d]pyrimidine-7-carboxylic acid [1-((S)-2-hydroxy-propanoyl)piperidin-4-yl]-amide]
